Data as given in patent US20230321055A1, “PREVENTIVE TREATMENT OF MIGRAINE” (priority 2022, published 2023).

System: participants with chronic migraine
Assay: Phase 3 randomized, double-blind, placebo-controlled study of atogepant for prevention of chronic migraine: eDiary efficacy (migraine, headache and acute medication use days, responder rates)
Type: in vivo, human
Settings: for MMDs, LS mean difference vs. placebo / participants with ≥50% reduction in 3-month average of MMDs / ≥50% reduction in 3-month average of MMDs, OR vs placebo: Europe subpopulation; for LSM change from baseline in mean monthly acute medication use days / mean monthly acute medication use days, LSM difference vs placebo: acute medication over-users; for participants with ≥50% reduction in mean MMDs across the 12-week treatment period: acute medication overuse participants; for LSM change from baseline in mean MMDs across 12 weeks: participants with acute medication overuse at baseline; for mean change from baseline in MMDs: weeks 1-4 of treatment
Procedure: A phase 3, multicenter, randomized, double-blind, placebo-controlled, parallel-group study was carried out to evaluate the efficacy, safety, and tolerability of atogepant for the prevention of chronic migraine. A total of 778 participants from 133 sites in North America, Europe, and East Asia were randomized to one of three treatment arms (placebo, Atogepant 30 mg BID, and Atogepant 60 mg QD) in a 1:1:1 ratio.
This study comprised a 4-week screening and baseline period, a 12-week double blind treatment period, and a follow-up period of 4 additional weeks. The total study duration was 20 weeks. Participant disposition information and other relevant participant screening information may also be found in FIG. 19.
The primary end point was the change from baseline in the mean number of migraine days per month across the 12 week treatment period.
Secondary endpoints included change from baseline in mean monthly headache days across the 12 week treatment period; change from baseline in mean monthly acute medication use days across the 12-week treatment period; at least a 50% reduction in mean monthly migraine days across the 12-week treatment period; change from baseline in MSQ v2.1 Role Function-Restrictive domain score at week 12; change from baseline in mean AIM-D monthly functioning and activity impairment score across the 12-week treatment period; and change from baseline in HIT-6 total score at week 12.
Inclusion criteria included at least a 1-year history of chronic migraine consistent with diagnosis according to the International Classification of Headache Disorders, 3rd Edition (ICHD-3) and age of the participant at the time of migraine onset <50 years. Inclusion criteria further included confirmation of headache / migraine headache day frequency as follows: history of, on average, ≥15 headache days per month in the 3 months prior to Visit 1 in the opinion of the investigator AND >=15 headache days during the 4-week screening/baseline period per the electronic diary (eDiary) AND >=8 days during the 4-week screening/baseline period that qualify as being a migraine day per the eDiary. Participants were also required to be using a medically acceptable and effective method of birth control during the course of the entire study.
Exclusion criteria included a history of migraine, accompanied by diplopia or decreased level of consciousness, or retinal migraine; a current diagnosis of new persistent daily headache, trigeminal autonomic cephalgia (e.g., cluster headache), or painful cranial neuropathy; history of an inadequate response to >4 medications (2 of which have different mechanisms of action) prescribed for the prevention of migraine; and woman who is pregnant, planning to become pregnant during the course of the study, or currently lactating.
• All Screened Participants includes those screened participants who signed informed consent form. • The Intent-to-Treat Population includes all randomized participants. […] Treatment groups assigned as randomized.
A Subset of patients (11%) was allowed to use one concomitant migraine preventive medication (e.g., amitriptyline, propranolol, topiramate). Patients were allowed to use acute headache treatments (i.e., triptans, ergotamine derivatives, NSAIDs, acetaminophen, and opioids) as needed. Patients with acute medication overuse and medication overuse headache were also enrolled. The use of a concomitant medication that acts on the CGRP pathway was not permitted for either acute or preventive treatment of migraine. The study excluded patients with myocardial infarction, stroke, or transient ischemic attacks within six months prior to screening.
Outcomes for this analysis included change from baseline in mean MMDs during 4-week intervals, change in weekly migraine days during weeks 1-4, and the proportion of participants with a migraine on each day during the first 7 days of treatment. […] Baseline MMDs ranged from 18.6 to 19.2 across treatment groups. […]

[1] = 30 mg BID, Off-Treatment Hypothetical Estimand population
[2] = 30 mg BID, mITT, listed as atogepant
[3] = 60 mg QD, Off-Treatment Hypothetical Estimand population
[4] = 60 mg QD, mITT, listed as atogepant
[5] = range over 30 mg twice daily and 60 mg once daily

C[C@@H]1[C@H](c2c(F)ccc(F)c2F)C[C@H](NC(=O)c2cnc3c(c2)C[C@@]2(C3)C(=O)Nc3ncccc32)C(=O)N1CC(F)(F)F [Atogepant, (S)—N—((3S,5S,6R)-6-methyl-2-oxo-1-(2,2,2-trifluoroethyl)-5-(2,3,6-trifluorophenyl)piperidin-3-yl)-2′-oxo-1′,2′,5,7-tetrahydrospiro[cyclopenta[b]pyridine-6,3′-pyrrolo[2,3-b]pyridine]-3-carboxamide]
MMDs, LS mean difference vs. placebo (30 mg BID): −3.02
participants with ≥50% reduction in 3-month average of MMDs (30 mg BID): 48.4%
≥50% reduction in 3-month average of MMDs, OR vs placebo (30 mg BID): 1.87
LS mean change in MMDs (30 mg BID, Europe subpopulation of OTHE population (n=91)): −8.44
decrease of monthly migraine days across the 12 weeks (30 mg BID, OTHE population): 7.33 days
>=50% reduction in 3-month average of monthly migraine days, Odds ratio Atogepant vs. Placebo [1]: 2.03
Change from baseline in mean monthly acute medication use days across the 12-week treatment period, LS Mean [1]: -6.61 days
Change from baseline in mean monthly acute medication use days across the 12-week treatment period, LSMD Atogepant vs. Placebo [1]: -2.52 days
Change from baseline in mean monthly headache days across the 12-week treatment period, LS Mean [1]: -7.32 days
Change from baseline in mean monthly headache days across the 12-week treatment period, LSMD Atogepant vs. Placebo [1]: -2.14 days
Change from baseline in mean monthly migraine days across the 12-week treatment period, LS Mean [1]: -7.33 days
Change from baseline in mean monthly migraine days across the 12-week treatment period, LSMD Atogepant vs. Placebo [1]: -2.24 days
>=50% reduction in 3-month average of monthly migraine days, Responders (30 mg BID, Off-Treatment Hypothetical Estimand population (N = 254)): 107 (42.1) n (%)
LSM change from baseline in mean monthly acute medication use days (30 mg BID): −8.4
mean monthly acute medication use days, LSM difference vs placebo (30 mg BID): −2.8
participants with ≥50% reduction in mean MMDs across the 12-week treatment period (30 mg BID): 44.7%
>=50% reduction in 3-month average of monthly migraine days, Odds ratio Atogepant vs. Placebo (30 mg BID, mITT): 2.13
Change from baseline in mean monthly acute medication use days across the 12-week treatment period, LS Mean (30 mg BID, mITT): -6.73 days
Change from baseline in mean monthly acute medication use days across the 12-week treatment period, LSMD Atogepant vs. Placebo (30 mg BID, mITT): -2.63 days
Change from baseline in mean monthly headache days across the 12-week treatment period, LS Mean (30 mg BID, mITT): -7.44 days
Change from baseline in mean monthly headache days across the 12-week treatment period, LSMD Atogepant vs. Placebo (30 mg BID, mITT): -2.32 days
Change from baseline in mean monthly migraine days across the 12-week treatment period, LS Mean (30 mg BID, mITT): -7.46 days
Change from baseline in mean monthly migraine days across the 12-week treatment period, LSMD Atogepant vs. Placebo (30 mg BID, mITT): -2.41 days
decrease of monthly migraine days across the 12 weeks (30 mg BID, mITT): 7.46 days
participants with ≥30% reduction in mean MMDs across 12 weeks (30 mg BID, mITT): 62.1%
participants with ≥50% reduction in mean MMDs across 12 weeks (30 mg BID, mITT): 42.7%
participants with ≥75% reduction in mean MMDs across 12 weeks (30 mg BID, mITT): 21.3%
Change from baseline in mean monthly migraine days across the 12-week treatment period, LS Mean [2]: -7.5 days
Change from baseline in mean monthly migraine days across the 12-week treatment period, LSMD Atogepant vs. Placebo [2]: -2.4 days
LSM change from baseline in mean MMDs across 12 weeks (30 mg BID): −8.3
mean change from baseline in MMDs (30 mg BID): -6.6 days
participants with <30% reduction in mean MMDs in month 1 who experienced ≥30% reduction in either month 2 or 3 (30 mg twice daily): 50/96
participants with <30% reduction in mean MMDs in month 1 who experienced ≥30% reduction in month 2 (30 mg twice daily): 36/99
participants with <50% reduction in mean MMDs in month 1 who experienced ≥50% reduction in either month 2 or 3 (30 mg twice daily): 52/132
participants with <50% reduction in mean MMDs in month 1 who experienced ≥50% reduction in month 2 (30 mg twice daily): 32/136
participants without ≥30% reduction in mean MMDs in months 1 or 2 who experienced a ≥30% response by the end of the trial (30 mg twice daily): 23.3%
participants without ≥50% reduction in mean MMDs in months 1 or 2 who experienced a ≥50% response by the end of the trial (30 mg twice daily): 20.0%
sustained response among participants with ≥75% response in month 1 (30 mg twice daily, mITT): 46.9%
sustained response of ≥30% in months 2 and 3 among participants with ≥30% response in month 1 (30 mg twice daily, mITT): 81.8%
sustained response of ≥50% in months 2 and 3 among participants with ≥50% response in month 1 (30 mg twice daily, mITT): 71.6%
MMDs, LS mean difference vs. placebo (60 mg QD): −2.59
participants with ≥50% reduction in 3-month average of MMDs (60 mg QD): 46.7%
≥50% reduction in 3-month average of MMDs, OR vs placebo (60 mg QD): 1.84
LS mean change in MMDs (60 mg QD, Europe subpopulation of OTHE population (n=90)): −8.00
decrease of monthly migraine days across the 12 weeks (60 mg QD, OTHE population): 6.75 days
>=50% reduction in 3-month average of monthly migraine days, Odds ratio Atogepant vs. Placebo [3]: 1.90
Change from baseline in mean monthly acute medication use days across the 12-week treatment period, LS Mean [3]: -6.19 days
Change from baseline in mean monthly acute medication use days across the 12-week treatment period, LSMD Atogepant vs. Placebo [3]: -2.09 days
Change from baseline in mean monthly headache days across the 12-week treatment period, LS Mean [3]: -6.90 days
Change from baseline in mean monthly headache days across the 12-week treatment period, LSMD Atogepant vs. Placebo [3]: -1.72 days
Change from baseline in mean monthly migraine days across the 12-week treatment period, LS Mean [3]: -6.75 days
Change from baseline in mean monthly migraine days across the 12-week treatment period, LSMD Atogepant vs. Placebo [3]: -1.66 days
>=50% reduction in 3-month average of monthly migraine days, Responders (60 mg QD, Off-Treatment Hypothetical Estimand population (N = 257)): 103 (40.1) n (%)
LSM change from baseline in mean monthly acute medication use days (60 mg QD): −8.1
mean monthly acute medication use days, LSM difference vs placebo (60 mg QD): −2.6
participants with ≥50% reduction in mean MMDs across the 12-week treatment period (60 mg QD): 41.8%
>=50% reduction in 3-month average of monthly migraine days, Odds ratio Atogepant vs. Placebo (60 mg QD, mITT): 2.04
Change from baseline in mean monthly acute medication use days across the 12-week treatment period, LS Mean (60 mg QD, mITT): -6.23 days
Change from baseline in mean monthly acute medication use days across the 12-week treatment period, LSMD Atogepant vs. Placebo (60 mg QD, mITT): -2.13 days
Change from baseline in mean monthly headache days across the 12-week treatment period, LS Mean (60 mg QD, mITT): -7.00 days
Change from baseline in mean monthly headache days across the 12-week treatment period, LSMD Atogepant vs. Placebo (60 mg QD, mITT): -1.87 days
Change from baseline in mean monthly migraine days across the 12-week treatment period, LS Mean (60 mg QD, mITT): -6.88 days
Change from baseline in mean monthly migraine days across the 12-week treatment period, LSMD Atogepant vs. Placebo (60 mg QD, mITT): -1.82 days
decrease of monthly migraine days across the 12 weeks (60 mg QD, mITT): 6.88 days
participants with ≥30% reduction in mean MMDs across 12 weeks (60 mg QD, mITT): 59.0%
participants with ≥50% reduction in mean MMDs across 12 weeks (60 mg QD, mITT): 41.0%
participants with ≥75% reduction in mean MMDs across 12 weeks (60 mg QD, mITT): 18.8%
Change from baseline in mean monthly migraine days across the 12-week treatment period, LS Mean [4]: -6.9 days
Change from baseline in mean monthly migraine days across the 12-week treatment period, LSMD Atogepant vs. Placebo [4]: -1.8 days
LSM change from baseline in mean MMDs across 12 weeks (60 mg QD): −7.5
mean change from baseline in MMDs (60 mg QD): -6.2 days
participants with <30% reduction in mean MMDs in month 1 who experienced ≥30% reduction in either month 2 or 3 (60 mg once daily): 45/108
participants with <30% reduction in mean MMDs in month 1 who experienced ≥30% reduction in month 2 (60 mg once daily): 31/113
participants with <50% reduction in mean MMDs in month 1 who experienced ≥50% reduction in either month 2 or 3 (60 mg once daily): 38/139
participants with <50% reduction in mean MMDs in month 1 who experienced ≥50% reduction in month 2 (60 mg once daily): 28/146
participants without ≥30% reduction in mean MMDs in months 1 or 2 who experienced a ≥30% response by the end of the trial (60 mg once daily): 17.1%
participants without ≥50% reduction in mean MMDs in months 1 or 2 who experienced a ≥50% response by the end of the trial (60 mg once daily): 8.2%
sustained response among participants with ≥75% response in month 1 (60 mg once daily, mITT): 52.5%
sustained response of ≥30% in months 2 and 3 among participants with ≥30% response in month 1 (60 mg once daily, mITT): 81.6%
sustained response of ≥50% in months 2 and 3 among participants with ≥50% response in month 1 (60 mg once daily, mITT): 74.2%
likelihood of having a migraine vs placebo (first full day after treatment initiation, atogepant-treated participants, P≤0.03): significantly less likely
participants with <30% reduction in mean MMDs in month 1 who experienced ≥30% reduction in either month 2 or 3 [5]: 41.7%-52.1%
participants with <30% reduction in mean MMDs in month 1 who experienced ≥30% reduction in month 2 [5]: 27.4%-36.4%
participants with <50% reduction in mean MMDs in month 1 who experienced ≥50% reduction in either month 2 or 3 [5]: 27.3%-39.4%
participants with <50% reduction in mean MMDs in month 1 who experienced ≥50% reduction in month 2 [5]: 19.2%-23.5%
